Data published in US20050143450A1, “Alkyl PCDF as a treatment for prostate cancer” (priority 2002, published 2005).
Where two headings read alike, the source gives them in different places.

How the values were obtained:
AhR = molecular target: T1, AhR (Homo sapiens, UniProt P35869); assay: AhR activation, pDRE3 luciferase transient transfection in LNCaP cells; format: cell-based
T1 construct: LNCaP cells were transfected with pDRE3, treated with various compounds and luciferase activity was determined; endogenous in cells; host or cells: LNCaP
T1 sequence (P35869 11-848): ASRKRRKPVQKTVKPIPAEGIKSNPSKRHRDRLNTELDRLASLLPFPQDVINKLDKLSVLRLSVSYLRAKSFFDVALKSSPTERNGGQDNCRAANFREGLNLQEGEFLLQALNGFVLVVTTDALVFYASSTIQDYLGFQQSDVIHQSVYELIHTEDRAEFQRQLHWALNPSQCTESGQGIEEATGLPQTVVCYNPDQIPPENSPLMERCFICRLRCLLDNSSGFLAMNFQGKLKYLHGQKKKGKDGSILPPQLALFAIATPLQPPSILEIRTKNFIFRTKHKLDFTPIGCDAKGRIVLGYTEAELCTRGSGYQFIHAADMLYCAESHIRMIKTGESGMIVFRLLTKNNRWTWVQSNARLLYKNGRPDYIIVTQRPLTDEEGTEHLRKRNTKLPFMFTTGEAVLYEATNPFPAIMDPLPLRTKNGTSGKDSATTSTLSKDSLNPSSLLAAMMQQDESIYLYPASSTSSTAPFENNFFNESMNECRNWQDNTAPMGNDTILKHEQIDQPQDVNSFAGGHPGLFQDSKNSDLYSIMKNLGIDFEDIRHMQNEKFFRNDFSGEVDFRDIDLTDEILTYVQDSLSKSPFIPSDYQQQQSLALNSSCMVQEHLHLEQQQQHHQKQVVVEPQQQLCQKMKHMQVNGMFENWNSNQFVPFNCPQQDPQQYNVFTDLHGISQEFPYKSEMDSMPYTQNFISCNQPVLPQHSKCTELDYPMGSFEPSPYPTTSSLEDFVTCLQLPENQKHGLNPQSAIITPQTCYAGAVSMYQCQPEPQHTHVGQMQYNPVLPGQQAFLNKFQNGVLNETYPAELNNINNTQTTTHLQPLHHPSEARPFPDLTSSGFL
Experimental: (§1) After 24 h, cells were transfected using Lipofectamine and Plus reagents (Invitrogen) according to manufacturer's instructions. LNCaP and ZR-75 cells were transfected with 500 ng/well of either reporter plasmid, and 250 ng/well of pcDNA3.1-β-gal (Invitrogen) as the internal control. In addition, ZR-75 cells were transfected with 500 ng hAR. Twenty-four hours after treatment, cells were harvested by scraping with 200 μL/well of reporter lysis buffer. Lysates were centrifuged at 40,000 g and luciferase and β-galactosidase activity was assayed with 30 μL of the supernatant extract per sample using a Lumicount luminometer (PerkinElmer, Boston, Mass.). Luciferase activity was normalized to β-galactosidase activity for each transfection well.
LNCaP cells were transfected with pDRE3, treated with various compounds and luciferase activity was determined as described in the above Examples.

LNCaP cells = format: cell-based, human
Experimental: After trypsinization and low-speed centrifugation, LNCaP cells were resuspended and counted using a Coulter cell counter (Beckman Coulter, Fullerton, Calif.). Cells were seeded at a density of 5×10^4/35-mm well using DME-F12 without phenol red, supplemented with 2.5% charcoal-stripped fetal bovine serum (FBS). Twenty-four hours after seeding, initial treatment was applied and then subsequently reapplied with fresh medium every two days until harvesting by trypsinization. Cells were counted after harvesting using a Coulter counter.

[1] = test system: LNCaP prostate cancer cells; format: cell-based, human
Experimental: Cells were analyzed on a FACS Calibur (Becton Dickinson, San Jose, Calif.) flow cytometer, equipped with a 15 mW air-cooled argon laser, using CellQuest (Becton Dickinson) acquisition software. Propidium iodide (PI) fluorescence was collected through a 585/42-nm bandpass filter, and list mode data were acquired on a minimum of 12,000 single cells defined by a dot plot of PI-width versus PI-area. Data analysis was performed in ModFit LT (Verity Software House, Topsham, Me.) using PI-width versus PI-area to exclude cell aggregates.
The effects of TCDD on cell cycle progression was also determined in LNCaP cells treated with 1.0, 10 and 100 nM TCDD for 48 h followed by FACS analysis (Table 1).

[2] = test system: androgen-responsive probasin gene promoter (pPB); format: cell-based, human
Experimental: as §1, with “ZR-75 human breast cancer and LNCaP human prostate cancer cells were obtained from American Type Culture Collection (Manassas, Va.) and were maintained in RPMI 1640 medium supplemented with 10% FBS, 1% antibiotic/antimycotic solution, 1.5 g/L sodium bicarbonate, and 10 mM HEPES, final pH of 7.4. Cells were seeded at 2.75×10^5 per 22-mm well in DME-F12 without phenol red, supplemented with 2.5% charcoal-stripped fetal bovine serum (FBS). After” for “After”

AR [3] = molecular target: T2, AR (Homo sapiens, UniProt P10275, T878A); format: cell-based; settings: LNCaP, pPB, HPTE 10 μM
T2 construct: AR protein levels in whole cell lysates were determined by Western blot analysis; endogenous in cells; host or cells: LNCaP
T2 sequence (P10275 1-920 T878A): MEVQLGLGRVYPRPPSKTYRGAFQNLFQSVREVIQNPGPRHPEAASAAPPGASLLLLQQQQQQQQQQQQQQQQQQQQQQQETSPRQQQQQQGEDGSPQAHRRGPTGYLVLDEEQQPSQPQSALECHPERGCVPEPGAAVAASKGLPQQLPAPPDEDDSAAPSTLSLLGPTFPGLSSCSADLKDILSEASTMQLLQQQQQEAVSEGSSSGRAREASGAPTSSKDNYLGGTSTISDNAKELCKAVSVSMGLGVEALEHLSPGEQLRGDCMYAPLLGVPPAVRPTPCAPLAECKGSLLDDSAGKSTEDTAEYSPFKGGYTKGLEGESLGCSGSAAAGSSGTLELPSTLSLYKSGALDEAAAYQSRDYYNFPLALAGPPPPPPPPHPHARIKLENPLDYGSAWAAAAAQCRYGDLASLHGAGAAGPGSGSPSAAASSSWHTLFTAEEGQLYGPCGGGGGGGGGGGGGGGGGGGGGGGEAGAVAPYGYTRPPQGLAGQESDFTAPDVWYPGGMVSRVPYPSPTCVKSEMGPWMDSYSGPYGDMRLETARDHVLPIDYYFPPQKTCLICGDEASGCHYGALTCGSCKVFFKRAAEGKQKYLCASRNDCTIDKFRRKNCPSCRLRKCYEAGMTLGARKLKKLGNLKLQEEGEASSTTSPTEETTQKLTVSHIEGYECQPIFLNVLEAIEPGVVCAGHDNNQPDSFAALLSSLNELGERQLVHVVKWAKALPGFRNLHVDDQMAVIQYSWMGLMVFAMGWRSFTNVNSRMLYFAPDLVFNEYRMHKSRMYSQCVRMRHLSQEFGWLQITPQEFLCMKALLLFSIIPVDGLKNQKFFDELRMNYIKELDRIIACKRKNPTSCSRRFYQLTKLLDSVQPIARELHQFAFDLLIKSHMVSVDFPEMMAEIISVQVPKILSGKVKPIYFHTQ
Experimental: as §1
The transfected cells were then treated with hormone or AhR agonist alone or in combination and luciferase activity was determined as described in the above examples.

AR [4] = molecular target: T2, AR; format: cell-based; settings: LNCaP
Experimental: as §1
Next, LNCaP cells were transfected with pARR3 construct that contained three tandem (3) copies of the probasin androgen response element. The transfected cells were treated with hormone or AhR agonist alone or in combination and luciferase activity was determined as described in the above examples.

AR [5] = assay: AR protein levels in LNCaP cells by Western blot; format: cell-based, human; settings: 6 h
Experimental: Cells were harvested 6 h after treatment using 200 μL/22-mm well of ice cold lysis buffer (50 mM HEPES, pH 7.5, 500 mM NaCl, 10% (v/v) glycerol, 1% (v/v) Triton-X 100, 1.5 mM MgCl2, 1 mM EGTA) (McDougal et al., 2001). Lysates were centrifuged at 40,000 g, and supernatant was collected as extract. Whole cell extracts (50 μg/sample) were separated by electrophoresis on a tiered 7.5% (top)/12.5% (bottom) SDS-polyacrylamide gel and transferred to PVDF membrane (Bio-Rad, Richmond, Calif.). The membrane was blocked with 5% milk (m/v) in tris-buffered saline 0.05% Tween (TBST). Membranes were incubated with primary antibodies for AR (sc-7305), cyclin D1 (sc-718), or p27 (sc-528) (each from Santa Cruz Biotechnology, Santa Cruz, Calif.) at 1:1000 in 5% milk/TBST for 3 h. Membranes were washed twice in TBST. Horseradish peroxidase (HRP)-conjugated secondary antibodies were applied at 1:5000 in 5% milk/TBST for 1 h. After two TBST washes, PVDF-bounded antibodies were detected using a chemiluminescence kit (Western Lightning, PerkinElmer), ImageTek-H film (American X-Ray and Medical Supply, Rancho Cordova, Calif.) and an autoprocessor (Hope Macro-Med, Warminster, Pa.). Quantitation of the Western blot was performed using a Sharp JX-330 scanner (Sharp, Mahwah, N.J.) and Zero-D software (Scanalytics, Billerica, Mass.).

C[C@]12CCC(=O)C[C@@H]1CC[C@@H]1[C@@H]2CC[C@]2(C)[C@@H](O)CC[C@@H]12 [DHT, dihydrotestosterone]
luciferase activity induction compared to solvent control (DMSO) (AhR; pDRE3, 10 nM): did not significantly induce activity
effect on 6-MCDF-induced luciferase activity (AhR; pDRE3, hormone in combination with 6-MCDF): significantly inhibited
hormone-induced cell growth (LNCaP cells): not observed
Percent Distribution G0/G1 [1]: 73.400 ± 1.179%
Percent Distribution G2/M [1]: 9.433 ± 1.011%
Percent Distribution S [1]: 17.167 ± 0.296%
cell cycle distribution, difference between solvent (DMSO) and DHT [1]: minimal differences
reporter gene activity [2]: did not activate

C[C@]12CC[C@@H]3c4ccc(O)cc4CC[C@H]3[C@@H]1CC[C@@H]2O [E2, 17β-estradiol]
reporter gene activity ([2]; ZR-75 cells, pPB alone): did not activate

C[C@]12CC[C@@H]3c4ccc(O)cc4C[C@@H](CCCCCCCCC[S+]([O-])CCCC(F)(F)C(F)(F)F)[C@H]3[C@@H]1CC[C@@H]2O (stereo partly shown) [ICI 182780]
effect on DHT-induced luciferase activity (AR [3]; cotreatment with 10 nM DHT, MCDF 2 μM): only minimal inhibition
effect on E2-induced luciferase activity (AR [3]; cotreatment with 10 nM E2): significantly inhibited
effect on DHT-induced luciferase activity (AR [4]; pARR3, cotreatment with DHT): inhibited
effect on E2-induced luciferase activity (AR [4]; pARR3, cotreatment with E2): inhibited
AR levels in combination with DHT compared to DHT alone (AR [5]): not decreased
AR levels in combination with E2 compared to E2 alone (AR [5]): not decreased
AR protein levels, compound alone (AR [5]; DHT 10 nM, E2 10 nM, TCDD 10 nM, 6-MCDF 2 μM, HPTE 10 μM): increased
